In PubChem BioAssay (NCI):
Values joined by “and” are separate entries in the source; they are usually repeats but may differ in a detail not shown here. Equal entries are not always repeated.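 Following 48 hours of exposure in 96-well plates, responses at five concentrations were used to interpolate endpoints linearly. GI50 marks 50% less growth. TGI denotes the concentration required for complete inhibition of growth.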

Legend:
Test in all cases: growth of human tumour cells (NCI), 48 h
SF-539 CNS = test system: SF-539 CNS
UACC-62 melanoma = test system: UACC-62 melanoma
A498 renal = test system: A498 renal
EKVX NSCLC = test system: EKVX NSCLC
NCI-H522 lung = test system: NCI-H522 lung
OVCAR-3 ovarian = test system: OVCAR-3 ovarian
NCI-H226 lung = test system: NCI-H226 lung
HS 578T breast = test system: HS 578T breast
MOLT-4 leukemia = test system: MOLT-4 leukemia
HOP-62 NSCLC = test system: HOP-62 NSCLC

Compound	GI50 (SF-539 CNS)	TGI (SF-539 CNS) [µM]	GI50 (UACC-62 melanoma)	TGI (UACC-62 melanoma) [µM]	GI50 (A498 renal)	TGI (A498 renal)	GI50 (EKVX NSCLC)	TGI (EKVX NSCLC) [µM]	GI50 (NCI-H522 lung) [µM]	TGI (NCI-H522 lung) [µM]	GI50 (OVCAR-3 ovarian)	TGI (OVCAR-3 ovarian) [µM]	GI50 (NCI-H226 lung)	TGI (NCI-H226 lung) [µM]	GI50 (HS 578T breast)	TGI (HS 578T breast) [µM]	GI50 (MOLT-4 leukemia)	TGI (MOLT-4 leukemia) [µM]	GI50 (HOP-62 NSCLC) [µM]	TGI (HOP-62 NSCLC) [µM]
CS(=O)(=O)CCNCc1cc(-c2cc3c(Nc4ccc(OCc5cccc(F)c5)c(Cl)c4)ncnc3s2)cs1	9.92 µM	> 25	7.12 µM	24.5	2.27 µM	> 25 µM	3.42 µM	> 25	9.64	> 25	6.82 µM	> 25	15.1 µM	> 25	4.67 µM	> 17.6	8.9 µM	> 25	> 16.8	> 25
Nc1nonc1-c1nc2cnccc2n1C1CC1	2.54 µM	10.1	7.59 µM	> 25	1.97 µM	8.77 µM	1.63 µM	> 25	3.43	13.2	7.55 µM	> 25	0.739 µM	> 14.6	1.16 µM	9.54	12.1 µM	> 25	5.33	> 16.8
Cn1c(C(=O)c2ccncc2)cc2ccccc21	87.5 µM	> 100	83.5 µM	> 100	26.2 µM	> 100 µM	78.1 µM	> 100	78.5	> 100	49.7 µM	> 100	> 100 µM	> 100	65 µM	> 100	54.4 µM	> 100	> 100	> 100
FC(F)(c1ccc2ncccc2c1)c1nnc2ccc(-c3ccncc3)nn12	46.4 µM	> 100	> 100 µM	> 100	19.3 µM	> 100 µM	21.4 µM	> 100	> 100	> 100	> 100 µM	> 100	45.9 µM	> 100	22.3 µM	> 100	38.4 µM	> 100	62.7	> 100
O=C(/C=C/C12c3ccccc3C(c3ccccc31)C1C(=O)NC(=O)C12)c1ccc(Cl)cc1Cl (stereo not drawn)	1.59 µM	2.96	1.67 µM	3.18	1.82 µM	3.3 µM	1.86 µM	4.16	1.69	3.41	1.71 µM	3.16	2.14 µM	5.91	2.76 µM	7.01	1.77 µM	5.58	2.06	4.71
COc1cc(F)c(F)c(Nc2ccc(I)cc2F)c1NS(=O)(=O)C1(C[C@H](O)CO)CC1	> 6.57 µM	> 10	0.0158 µM	0.172	0.0936 µM	0.478 µM	0.323 µM	> 10	3.72	> 10	> 6.76 µM	> 10	> 3.42 µM	> 10	> 5.43 µM	> 10	> 6.02 µM	> 10	0.184	> 10
O=C1c2ccccc2-[n+]2ccc3c([nH]c4ccccc43)c21		1.45		0.699		3.15 µM		1.6		1.3		0.432		3.08		> 31.6		0.613		2.56
O=C(NOC[C@H](O)CO)c1ccc(F)c(F)c1Nc1ccc(I)cc1F	15.8 µM and > 10 µM	> 100	< 0.01 µM and 0.00155 µM		< 0.01 µM and 0.00351 µM	0.0647 µM and 0.0694 µM	0.101 µM and 0.0891 µM	> 100		> 100	37.6 µM and > 10 µM	> 100	0.717 µM and 1.43 µM	> 100	34.5 µM and > 2.97 µM	> 100	57.9 µM and > 10 µM	> 100	0.00599	> 100
COc1cc(OC)c(C(=O)/C=C/c2cc3c(cc2OCc2ccccc2)OC(C)(C)CC3)cc1CC=C(C)C	4.53 µM	8.8	3.8 µM	10.5	5.42 µM	21.8 µM	6.73 µM	22.6	7.85	> 25	4.89 µM	13.1	6.61 µM	22.1	3.05 µM	16.7	7.03 µM	> 25	6.78	13.5
[C](#Cc1ccccc1)[Hg][C]#Cc1ccccc1	53.1 µM	> 100	24.3 µM	53.7	> 100 µM	> 100 µM	> 100 µM	> 100	19.4	46.1	39.8 µM	> 100	28.1 µM	63.2	> 100 µM	> 100	34.3 µM	> 100	> 100	> 100
COc1ccc2c(=O)cc(-c3ccccc3)[nH]c2c1	0.584 µM	3.37	0.431 µM	> 100	0.263 µM	5.32 µM	2.25 µM	> 100	0.698	14.2	0.408 µM	2.14	2.14 µM	> 100	0.758 µM	> 100	1.25 µM	> 100	9.74	> 100
O=C1CC2C(=O)c3ccccc3CC2c2ccccc21 (stereo not drawn)		> 100		> 100		> 100 µM		> 100		> 100		> 100		> 100		> 100		69.3		> 100
Cc1nc(-c2ccccc2)n2nc(NCCCN3CCOCC3)ncc12	> 25 µM	> 25	> 25 µM	> 25	6.5 µM	> 25 µM	> 25 µM	> 25	> 25	> 25	> 25 µM	> 25	> 8.17 µM	> 25	12.2 µM	> 25	> 25 µM	> 25	> 25	> 25
